# According to patent US5071957A, “Antibiotic BU-4061T” (Bristol-Myers Company, priority 1990, dated 1991):
# What was measured:
# [1] = system: B16-F10 (murine melanoma) cells; assay: In vitro cytotoxicity against B16-F10 cells; format: cell-based; settings: 72 hours, colorimetric at 540 nm
# Method: (§1) B16-F10 (murine melanoma) and Moser (human colorectal carcinoma) cells were grown to the logarithmic phase in the enriched Eagle minimum essential medium supplemented with fetal calf serum (FCS, 10%) and kanamycin (60 μg/ml), while HCT-116 (human colon carcinoma) was grown in McCoy's 5A medium supplemented with FCS (10%) penicillin (100 μ/ml) and streptomycin (100 μg/ml). B16-F10, Moser and HCT-116 cells were harvested and implanted into wells of a 96-well microtiter plate with test materials at the inoculum sizes of 3×10^4, 6×10^4 and 6×10^4 cells/ml, respectively. They were incubated at 37° C. in a humidified atmosphere of 5% CO2 and 95% air for 72 hours. The cytotoxicity against tumor cells was determined colorimetrically at 540 nm after staining viable cells.
# [2] = system: HCT-116 (human colon carcinoma); assay: In vitro cytotoxicity against HCT-116 cells; format: cell-based; settings: 72 hours, colorimetric at 540 nm
# Method: as §1
# [3] = system: RNA synthesis in B16-F10 melanoma cells; assay: Inhibition of RNA synthesis (14C-uridine incorporation) in B16-F10 melanoma cells; format: cell-based, murine
# Method: (§2) Inhibitory effects of BU-4061T on the macromolecule (DNA, RNA and protein) synthesis were determined in cultured B16-F10 melanoma cells. B16-F10 cells (10^5 cells/ml) were incubated with the compound at 37° C. for 4.5 hours (for DNA synthesis) or 4 hours (for RNA and protein synthesis). Labelled precursor, ^3 H-thymidine, ^14 C-uridine or ^3 H-leucine was added to the culture and further incubated for 30 minutes (for DNA) or 60 minutes (for RNA and protein). After washing with chilled 5% trichloroacetic acid solution, the radioactivity incorporated into the acid-insoluble fraction of the tumor cells was determined by a liquid scintillation counter.
# [4] = Solubility (physico-chemical properties); format: physicochemical
# Text: BU-4061T was obtained as a white amorphous powder. […] BU-4061T gave positive response to iodine vapor, ammonium molybdate-sulfuric acid solution and Rydon-Smith reagent, but negative response to ninhydrin and anthrone reagent.
# [5] = system: DNA synthesis in B16-F10 melanoma cells; assay: Inhibition of DNA synthesis (3H-thymidine incorporation) in B16-F10 melanoma cells; format: cell-based, murine
# Method: as §2
# [6] = system: Moser (human colorectal carcinoma) cells; assay: In vitro cytotoxicity against Moser cells; format: cell-based
# Method: as §1
# [7] = system: protein synthesis in B16-F10 melanoma cells; assay: Inhibition of protein synthesis (3H-leucine incorporation) in B16-F10 melanoma cells; format: cell-based, murine
# Method: as §2
# P388 leukemia = assay: Antitumor activity against P388 leukemia (ip); settings: Q1D × 9
# Method: (§3) To determine in vivo antitumor activity of BU-4061T, male BDF1 mice were intraperitoneally inoculated with 0.5 ml of 10% melanotic melanoma B16 brei, and female CDF1 mice were intraperitoneally inoculated with 0.4 ml of diluted ascitic fluid containing 10^6 lymphocytic leukemia P388 cells. […] Test materials were intraperitoneally administered to mice on days 1, 5 and 9 (Q4D×3) or on days 1 to 9 (QlD×9).
# B16 melanoma = assay: Antitumor activity against B16 melanoma (ip)
# Method: as §3
smiles,measurement,setting,value
CC[C@H](C)[C@H](NC(=O)[C@H]([C@@H](C)CC)N(C)C(C)=O)C(=O)N[C@H](C(=O)N[C@@H](CC(C)C)C(=O)[C@@]1(C)CO1)[C@@H](C)O [BU-4061T],IC50 B16-F10,[1],0.0047 µg/mL
same,IC50 HCT-116,[2],0.0067 µg/mL
same,inhibitory effect on RNA synthesis (in words),[3],moderate inhibitory effects
same,IC50 RNA,[3]; 4 hours + 60 minutes 14C-uridine,46 µg/mL
same,solubility in ethyl acetate,[4]; ethyl acetate,readily soluble
same,solubility in methanol,[4]; methanol,readily soluble
same,solubility in methylene chloride,[4]; methylene chloride,readily soluble
same,solubility in water,[4]; water,practically insoluble
same,inhibitory effect on DNA synthesis (in words),[5],moderate inhibitory effects
same,IC50 DNA,[5]; 4.5 hours + 30 minutes 3H-thymidine,16 µg/mL
same,IC50 Moser,"[6]; 72 hours, colorimetric at 540 nm",0.17 µg/mL
same,cytotoxicity against Moser cells (in words),[6]; compared with B16-F10 and HCT-116 cells,weaker than that against B16-F10 and HCT-116 cells
same,inhibition of incorporation of leucine into the protein fraction (in words),"[7]; 100 μg/ml, the highest concentration tested",did not significantly inhibit
same,IC50 Protein,"[7]; B16-F10 cells, 4 hours + 60 minutes 3H-leucine",> 100 µg/mL
same,MST (median survival time),P388 leukemia; 0.063 mg/kg/day ip,10.5 days
same,T/C,P388 leukemia; 0.063 mg/kg/day ip,105%
same,MST (median survival time),P388 leukemia; 0.13 mg/kg/day ip,11.0 days
same,T/C,P388 leukemia; 0.13 mg/kg/day ip,110%
same,MST (median survival time),P388 leukemia; 0.25 mg/kg/day ip,11.5 days
same,T/C,P388 leukemia; 0.25 mg/kg/day ip,115%
same,MST (median survival time),P388 leukemia; 0.5 mg/kg/day ip,13.0 days
same,MST (median survival time),P388 leukemia; 1 mg/kg/day ip,10.5 days
same,T/C,P388 leukemia; 1 mg/kg/day ip,105%
same,MST (median survival time),"B16 melanoma; 0.063 mg/kg/day ip, Q1D × 9",15.5 days
same,T/C,"B16 melanoma; 0.063 mg/kg/day ip, Q1D × 9",119%
same,MST (median survival time),"B16 melanoma; 0.13 mg/kg/day ip, Q1D × 9",16.0 days
same,T/C,"B16 melanoma; 0.13 mg/kg/day ip, Q1D × 9",123%
same,MST (median survival time),"B16 melanoma; 0.25 mg/kg/day ip, Q1D × 9",18.0 days
same,MST (median survival time),"B16 melanoma; 0.25 mg/kg/day ip, Q4D × 3",14.5 days
same,T/C,"B16 melanoma; 0.25 mg/kg/day ip, Q4D × 3",112%
same,MST (median survival time),"B16 melanoma; 0.5 mg/kg/day ip, Q1D × 9",19.5 days
same,MST (median survival time),"B16 melanoma; 0.5 mg/kg/day ip, Q4D × 3",15.5 days
same,T/C,"B16 melanoma; 0.5 mg/kg/day ip, Q4D × 3",119%
same,MST (median survival time),"B16 melanoma; 1 mg/kg/day ip, Q1D × 9",19.0 days
same,MST (median survival time),"B16 melanoma; 1 mg/kg/day ip, Q4D × 3",15.5 days
same,T/C,"B16 melanoma; 1 mg/kg/day ip, Q4D × 3",119%
same,MST (median survival time),"B16 melanoma; 2 mg/kg/day ip, Q4D × 3",17.0 days
same,MST (median survival time),"B16 melanoma; 4 mg/kg/day ip, Q4D × 3",16.5 days
same,antitumor activity against B16 melanoma (in words),"B16 melanoma; ip, either Q4D×3 or Q1D×9 treatment schedule",significant antitumor activities
"CO[C@@]12[C@H](COC(N)=O)C3=C(C(=O)C(C)=C(N)C3=O)N1C[C@@H]1N[C@@H]12 [Mitomycin C, mitomycin C]",Body Wt. change on day 4,P388 leukemia; 0.063 mg/kg/day ip,+0.8 g
same,MST (median survival time),P388 leukemia; 0.063 mg/kg/day ip,11.0 days
same,T/C,P388 leukemia; 0.063 mg/kg/day ip,110%
same,Body Wt. change on day 4,P388 leukemia; 0.13 mg/kg/day ip,+1.3 g
same,MST (median survival time),P388 leukemia; 0.13 mg/kg/day ip,12.0 days
same,T/C,P388 leukemia; 0.13 mg/kg/day ip,120%
same,Body Wt. change on day 4,P388 leukemia; 0.25 mg/kg/day ip,+1.0 g
same,MST (median survival time),P388 leukemia; 0.25 mg/kg/day ip,13.0 days
same,Body Wt. change on day 4,P388 leukemia; 0.5 mg/kg/day ip,0.0 g
same,MST (median survival time),P388 leukemia; 0.5 mg/kg/day ip,15.5 days
same,Body Wt. change on day 4,P388 leukemia; 1 mg/kg/day ip,-0.8 g
same,MST (median survival time),P388 leukemia; 1 mg/kg/day ip,17.0 days
same,Body Wt. change on day 5,"B16 melanoma; 0.3 mg/kg/day ip, Q4D × 3",-0.3 g
same,MST (median survival time),"B16 melanoma; 0.3 mg/kg/day ip, Q4D × 3",13.0 days
same,T/C,"B16 melanoma; 0.3 mg/kg/day ip, Q4D × 3",100%
same,Body Wt. change on day 5,"B16 melanoma; 1 mg/kg/day ip, Q4D × 3",-0.8 g
same,MST (median survival time),"B16 melanoma; 1 mg/kg/day ip, Q4D × 3",18.0 days
same,Body Wt. change on day 5,"B16 melanoma; 3 mg/kg/day ip, Q4D × 3",-0.3 g
same,MST (median survival time),"B16 melanoma; 3 mg/kg/day ip, Q4D × 3",28.0 days
